Laboratory results from patent US6461997B1, “Triazole sulfones having herbicidal activity” (Monsanto Technology LLC, priority 1999, dated 2002).

The compounds below were run on PANDI (fall panicum) (assay: Pre-emergence herbicidal activity, warm season). Settings: GR80 = lowest tested rate (300, 100, 30, 10 g/ha) with 80% or greater inhibition; approx. 14 days after treating; 30/21° C.
Format: in vivo, Panicum dichotomiflorum
Experimental: (§1) Tables 5 to 8 summarize results of tests conducted as described below to determine the pre-emergence herbicidal activity, in the form of a GR80 value, of illustrative compounds of this invention. […] Compounds of the invention were typically applied at rates of 300, 100, 30, and 10 g/ha. Where herbicidal activity was evident but 80% inhibition was not achieved at the highest rate tested, an asterisk (*) is shown in the following tables.
(§2) The pre-emergence tests were conducted by the following procedure. Topsoil was sieved to pass through a 1.27 cm screen. Fertilizer was added to the topsoil and the mixture was then sterilized by heating. The topsoil mixture was placed in a pot and compacted to a depth of 1.0 to 1.25 cm from the top of the pot. Seeds of each of several monocotyledonous and dicotyledonous annual plant species were placed on top of the soil. Additional soil was subsequently placed over the seeds to level-fill the pot. A known amount of each test compound dissolved or suspended in an appropriate organic solvent was diluted with a 50:50 mix of acetone and water and applied to the surface of the soil. After treatment the plants were placed in a greenhouse where they received 0.64 cm of overhead irrigation. All subsequent watering consisted of a light overhead mist and/or subirrigation as needed for germination and growth. Tables 5 and 6 below relate to warm season plant species which were placed after pre-emergence treatment in a greenhouse with a 30/21° C. day/night temperature regime. Tables 7 and 8 below relates to cool season plant species placed after pre-emergence treatment in a greenhouse or growth chamber with an 18/13° C. day/night temperature regime.
(§3) Approximately 14 days after planting and treating, the plants were observed and herbicidal efficacy recorded as percent inhibition by comparison with untreated plants.
(§4) The plant species usually regarded as weeds which were utilized in the tests are identified in the tables below according to the following legend, in which “d” indicates a dicotyledonous species and “m” a monocotyledonous species. All monocotyledonous species included in the tests herein are grasses.

| SMILES | Pre-emergence activity (GR80) PANDI |
| --- | --- |
| CN(C(=O)n1cnc(S(=O)(=O)C(F)(F)Br)n1)C1CCCCC1 [Example 43] | 100 g/ha |
| CCN(CC)C(=S)n1cnc(S(=O)(=O)C(F)(F)Br)n1 [Example 46] | 300 g/ha |

What follows are compounds tested on VERPE (creeping speedwell) (assay: Pre-emergence herbicidal activity, cool season). Settings: lowest tested rate with 80% or greater inhibition; rates 300, 100, 30, 10 g/ha; about 14 days.
Format: in vivo, Veronica persicaria
Procedure, shortened: (§5)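 GR80 values derive from percent inhibition relative to untreated plants, read roughly 14 days after sowing and pre-emergence soil-surface treatment (compound in 50:50 acetone/water; rates typically 10, 30, 100, 300 g/ha). Warm-season weeds grew at 30/21° C day/night, cool-season ones at 18/13° C; an asterisk marks activity without reaching 80% at the highest rate.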

| SMILES | Pre-emergence activity GR80, VERPE |
| --- | --- |
| CN(C(=O)n1cnc(S(=O)(=O)C(F)(F)Br)n1)C1CCCCC1 [Example 43] | 300 g/ha |
| CCN(CC)C(=S)n1cnc(S(=O)(=O)C(F)(F)Br)n1 [Example 46] | 100 g/ha |

What follows are compounds tested on SINAR (wild mustard) (assay: Pre-emergence herbicidal activity, cool season). Settings: lowest tested rate with 80% or greater inhibition; rates 300, 100, 30, 10 g/ha; about 14 days.
Format: in vivo, Sinapis arvensis
Procedure, shortened: as §5

| SMILES | Pre-emergence activity GR80, SINAR |
| --- | --- |
| CN(C(=O)n1cnc(S(=O)(=O)C(F)(F)Br)n1)C1CCCCC1 [Example 43] | [empty] |
| CCN(CC)C(=S)n1cnc(S(=O)(=O)C(F)(F)Br)n1 [Example 46] | [empty] |

The compounds below were run on POLCO (wild buckwheat) (assay: Pre-emergence herbicidal activity, cool season). Settings: lowest tested rate with 80% or greater inhibition; rates 300, 100, 30, 10 g/ha; about 14 days.
Format: in vivo, Polygonum convolvulus
Procedure, shortened: (§6)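 GR80 values, pre-emergence, soil applied at 300, 100, 30, 10 g/ha. Warm regime 30/21 °C: PANMI, DIGSA. Cool regime 18/13 °C: ALOMY, POLCO. Rating ~14 d, % inhibition vs untreated.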

| SMILES | Pre-emergence activity GR80, POLCO |
| --- | --- |
| CN(C(=O)n1cnc(S(=O)(=O)C(F)(F)Br)n1)C1CCCCC1 [Example 43] | [empty] |
| CCN(CC)C(=S)n1cnc(S(=O)(=O)C(F)(F)Br)n1 [Example 46] | 300 g/ha |

Each compound was assayed on AGSST (creeping bentgrass) (assay: Pre-emergence herbicidal activity, cool season). Settings: GR80 = lowest tested rate (300, 100, 30, 10 g/ha) with 80% or greater inhibition; approx. 14 days after treating; 18/13° C.
Format: in vivo, Agrostis stolonifera
Procedure, shortened: as §5

| SMILES | Pre-emergence activity (GR80) AGSST |
| --- | --- |
| CN(C(=O)n1cnc(S(=O)(=O)C(F)(F)Br)n1)C1CCCCC1 [Example 43] | 100 g/ha |
| CCN(CC)C(=S)n1cnc(S(=O)(=O)C(F)(F)Br)n1 [Example 46] | 300 g/ha |

Each compound was assayed on SORHA (johnsongrass (seedling)) (assay: Pre-emergence herbicidal activity, warm season). Settings: GR80 = lowest tested rate (300, 100, 30, 10 g/ha) with 80% or greater inhibition; approx. 14 days after treating; 30/21° C.
Format: in vivo, Sorghum halepense
Procedure, shortened: (§7)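 Activity is expressed as the rate giving 80% inhibition, with 300, 100, 30 and 10 g/ha typically tested. An asterisk marks activity short of 80% at the top rate. Warm-season grasses were held at 30/21 °C; cool-season blackgrass and wild buckwheat at 18/13 °C; scoring at about 14 days.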

| SMILES | Pre-emergence activity (GR80) SORHA |
| --- | --- |
| CCN(CC)C(=S)n1cnc(S(=O)(=O)C(F)(F)Br)n1 [Example 46] | 300 g/ha |

Each compound was assayed on LAMPU (purple deadnettle) (assay: Pre-emergence herbicidal activity, cool season). Settings: lowest tested rate with 80% or greater inhibition; rates 300, 100, 30, 10 g/ha; about 14 days.
Format: in vivo, Lamium purpureum
Procedure, shortened: as §5

| SMILES | Pre-emergence activity GR80, LAMPU |
| --- | --- |
| CN(C(=O)n1cnc(S(=O)(=O)C(F)(F)Br)n1)C1CCCCC1 [Example 43] | 300 g/ha |
| CCN(CC)C(=S)n1cnc(S(=O)(=O)C(F)(F)Br)n1 [Example 46] | 100 g/ha |

The compounds below were run on BRAPP (broadleaf signalgrass) (assay: Pre-emergence herbicidal activity, warm season). Settings: GR80 = lowest tested rate (300, 100, 30, 10 g/ha) with 80% or greater inhibition; approx. 14 days after treating; 30/21° C.
Format: in vivo, Brachiaria platyphylla
Procedure, shortened: as §7

| SMILES | Pre-emergence activity (GR80) BRAPP |
| --- | --- |
| CN(C(=O)n1cnc(S(=O)(=O)C(F)(F)Br)n1)C1CCCCC1 [Example 43] | 300 g/ha |

What follows are compounds tested on STEME (common chickweed) (assay: Pre-emergence herbicidal activity, cool season). Settings: lowest tested rate with 80% or greater inhibition; rates 300, 100, 30, 10 g/ha; about 14 days.
Format: in vivo, Stellaria media
Procedure, shortened: as §5

| SMILES | Pre-emergence activity GR80, STEME |
| --- | --- |
| CN(C(=O)n1cnc(S(=O)(=O)C(F)(F)Br)n1)C1CCCCC1 [Example 43] | 300 g/ha |
| CCN(CC)C(=S)n1cnc(S(=O)(=O)C(F)(F)Br)n1 [Example 46] | 300 g/ha |

These compounds were tested on SASKR (russian thistle) (assay: Pre-emergence herbicidal activity, cool season). Settings: lowest tested rate with 80% or greater inhibition; rates 300, 100, 30, 10 g/ha; about 14 days.
Format: in vivo, Salsola kali
Procedure, shortened: as §5

| SMILES | Pre-emergence activity GR80, SASKR |
| --- | --- |
| CN(C(=O)n1cnc(S(=O)(=O)C(F)(F)Br)n1)C1CCCCC1 [Example 43] | [empty] |
| CCN(CC)C(=S)n1cnc(S(=O)(=O)C(F)(F)Br)n1 [Example 46] | 300 g/ha |

These compounds were tested on SETVI (green foxtail) (assay: Pre-emergence herbicidal activity, cool season). Settings: GR80 = lowest tested rate (300, 100, 30, 10 g/ha) with 80% or greater inhibition; approx. 14 days after treating; 18/13° C.
Format: in vivo, Setaria viridis
Procedure, shortened: as §5

| SMILES | Pre-emergence activity (GR80) SETVI |
| --- | --- |
| CN(C(=O)n1cnc(S(=O)(=O)C(F)(F)Br)n1)C1CCCCC1 [Example 43] | 300 g/ha |
| CCN(CC)C(=S)n1cnc(S(=O)(=O)C(F)(F)Br)n1 [Example 46] | 300 g/ha |

The compounds below were run on POROL (common purslane) (assay: Pre-emergence herbicidal activity, warm season). Settings: GR80 = lowest tested rate (300, 100, 30, 10 g/ha) with 80% or greater inhibition; approx. 14 days after treating; 30/21° C.
Format: in vivo, Portulaca oleracea
Procedure, shortened: as §5

| SMILES | Pre-emergence activity (GR80) POROL |
| --- | --- |
| CN(C(=O)n1cnc(S(=O)(=O)C(F)(F)Br)n1)C1CCCCC1 [Example 43] | 300 g/ha |

These compounds were tested on SETFA (giant foxtail) (assay: Pre-emergence herbicidal activity, warm season). Settings: GR80 = lowest tested rate (300, 100, 30, 10 g/ha) with 80% or greater inhibition; approx. 14 days after treating; 30/21° C.
Format: in vivo, Setaria faberi
Procedure, shortened: as §7

| SMILES | Pre-emergence activity (GR80) SETFA |
| --- | --- |
| CN(C(=O)n1cnc(S(=O)(=O)C(F)(F)Br)n1)C1CCCCC1 [Example 43] | 100 g/ha |
| CCN(CC)C(=S)n1cnc(S(=O)(=O)C(F)(F)Br)n1 [Example 46] | 300 g/ha |

The compounds below were run on PANMI (wild proso millet) (assay: Pre-emergence herbicidal activity, warm season). Settings: GR80 = lowest tested rate (300, 100, 30, 10 g/ha) with 80% or greater inhibition; approx. 14 days after treating; 30/21° C.
Format: in vivo, Panicum miliaceum
Procedure, shortened: as §6

| SMILES | Pre-emergence activity (GR80) PANMI |
| --- | --- |
| CN(C(=O)n1cnc(S(=O)(=O)C(F)(F)Br)n1)C1CCCCC1 [Example 43] | 100 g/ha |
| CCN(CC)C(=S)n1cnc(S(=O)(=O)C(F)(F)Br)n1 [Example 46] | 300 g/ha |

What follows are compounds tested on CIRAR (canada thistle (seedling)) (assay: Pre-emergence herbicidal activity, warm season). Settings: GR80 = lowest tested rate (300, 100, 30, 10 g/ha) with 80% or greater inhibition; approx. 14 days after treating; 30/21° C.
Format: in vivo, Cirsium arvense
Experimental: as §1, §2, §3, §4

| SMILES | Pre-emergence activity (GR80) CIRAR |
| --- | --- |
| CN(C(=O)n1cnc(S(=O)(=O)C(F)(F)Br)n1)C1CCCCC1 [Example 43] | 300 g/ha |

Each compound was assayed on GALAP (catchweed bedstraw) (assay: Pre-emergence herbicidal activity, cool season). Settings: lowest tested rate with 80% or greater inhibition; rates 300, 100, 30, 10 g/ha; about 14 days.
Format: in vivo, Galium aparine
Procedure, shortened: as §5

| SMILES | Pre-emergence activity GR80, GALAP |
| --- | --- |
| CN(C(=O)n1cnc(S(=O)(=O)C(F)(F)Br)n1)C1CCCCC1 [Example 43] | 300 g/ha |
| CCN(CC)C(=S)n1cnc(S(=O)(=O)C(F)(F)Br)n1 [Example 46] | 300 g/ha |

Each compound was assayed on ALOMY (blackgrass) (assay: Pre-emergence herbicidal activity, cool season). Settings: GR80 = lowest tested rate (300, 100, 30, 10 g/ha) with 80% or greater inhibition; approx. 14 days after treating; 18/13° C.
Format: in vivo, Alopecurus myosuroides
Procedure, shortened: as §6

| SMILES | Pre-emergence activity (GR80) ALOMY |
| --- | --- |
| CN(C(=O)n1cnc(S(=O)(=O)C(F)(F)Br)n1)C1CCCCC1 [Example 43] | 300 g/ha |
